Data as given in ChEMBL document CHEMBL2046283, “Iotrochamides A and B, antitrypanosomal compounds from the Australian marine sponge Iotrochota sp” (Bioorg Med Chem Lett, 2012).

Columns and labels:
[1] = system: Trypanosoma brucei brucei; assay: Antitrypanosomal activity against Trypanosoma brucei brucei BS427 after 48 hrs by alamar blue assay; type: functional, organism-based; settings: BS427, 48 h
[2] = Growth inhibition of human HEK293 cells at 50 uM after 48 hrs by alamar blue assay relative to control; type: cell-based; settings: read-out: GI
[3] = Growth inhibition of human HEK293 cells at 70 uM after 48 hrs by alamar blue assay relative to control; type: cell-based; settings: read-out: GI

CO/C(=C\c1ccccc1)C(=O)N[C@@H](Cc1ccc(O)cc1)C(=O)O [IOTROCHAMIDES A]
IC50 [1]: 4.7 µM | inhibition at 48 h, 50 µM [2]: 85%

CO/C(=C\c1ccccc1)C(=O)N[C@@H](Cc1c[nH]c2cc(Br)ccc12)C(=O)O [IOTROCHAMIDES B]
inhibition at 48 h, 70 µM [3]: 100% | IC50 [1]: 3.4 µM
